Data taken from patent publication US9073911B2, “Pyrazole derivatives” (HOFFMANN-LA ROCHE INC., priority 2011, dated 2015).
Where a name gives a salt, the structure may show the parent alone.

What was measured:
mouse TAAR1 = mouse TAAR1 (Mus musculus (Mouse), UniProt Q923Y8); test: Radioligand binding assay on mouse TAAR1; details: membranes of HEK-293 cells stably expressing mouse TAAR1; first value of cell mouse/rat
Protocol: (§1) Construction of TAAR Expression Plasmids and Stably Transfected Cell Lines
(§2) For the construction of expression plasmids the coding sequences of human, rat and mouse TAAR 1 were amplified from genomic DNA essentially as described by Lindemann et al.. The Expand High Fidelity PCR System (Roche Diagnostics) was used with 1.5 mM Mg^2+ and purified PCR products were cloned into pCR2.1-TOPO cloning vector (Invitrogen) following the instructions of the manufacturer. PCR products were subcloned into the pIRESneo2 vector (BD Clontech, Palo Alto, Calif.), and expression vectors were sequence verified before introduction in cell lines.
(§3) HEK293 cells (ATCC # CRL-1573) were cultured essentially as described by Lindemann et al. (2005). For the generation of stably transfected cell lines HEK293 cells were transfected with the pIRESneo2 expression plasmids containing the TAAR coding sequences (described above) with Lipofectamine 2000 (Invitrogen) according to the instructions of the manufacturer, and 24 hrs post transfection the culture medium was supplemented with 1 mg/ml G418 (Sigma, Buchs, Switzerland). After a culture period of about 10 d clones were isolated, expanded and tested for responsiveness to trace amines (all compounds purchased from Sigma) with the cAMP Biotrak Enzyme immunoassay (EIA) System (Amersham) following the non-acetylation EIA procedure provided by the manufacturer.
Radioligand Binding Assay on Mouse TAAR1
(§4) Membrane Preparation and Radioligand Binding.
HEK-293 cells stably expressing mouse TAAR1 were maintained at 37° C. and 5% CO2 in DMEM high glucose medium, containing fetal calf serum (10%, heat inactivated for 30 min at 56° C.), penicillin/streptomycin (1%), and 375 μg/ml geneticin (Gibco). Cells were released from culture flasks using trypsin/EDTA, harvested, washed twice with ice-cold PBS (without Ca^2+ and Mg^2+), pelleted at 1,000 rpm for 5 min at 4° C., frozen and stored at −80° C. Frozen pellets were suspended in 20 ml HEPES-NaOH (20 mM, pH 7.4) containing 10 mM EDTA and homogenized with a Polytron (PT 6000, Kinematica) at 14,000 rpm for 20 s. The homogenate was centrifuged at 48,000×g for 30 min at 4° C. Subsequently, the supernatant was removed and discarded, and the pellet resuspended in 20 ml HEPES-NaOH (20 mM, pH 7.4) containing 0.1 mM EDTA using the Polytron (20 s at 14,000 rpm). This procedure was repeated and the final pellet resuspended in HEPES-NaOH containing 0.1 mM EDTA and homogenized using the Polytron. Typically, aliquots of 2 ml membrane portions were stored at −80° C. With each new membrane batch the dissociation constant (Kd) was determined via a saturation curve. The TAAR1 radioligand ^3[H]—(S)-4-[(ethyl-phenyl-amino)-methyl]-4,5-dihydro-oxazol-2-ylamine (described in WO 2008/098857) was used at a concentration equal to the calculated Kd value, that was usually around 0.7 nM, resulting in the binding of approximately 0.5% of the radioligand and a specific binding representing approximately 70% of the total binding. Nonspecific binding was defined as the amount of ^3[H]—(S)-4-[(ethyl-phenyl-amino)-methyl]-4,5-dihydro-oxazol-2-ylamine bound in the presence of 10 μM unlabeled ligand. All compounds were tested at a broad range of concentrations ([…]) in duplicates. […] The 96 deep well plates were incubated for 1 hr at 4° C. Incubations were terminated by rapid filtration through Unifilter-96 plates (Packard Instrument Company) and glass filters GF/C (Perkin Elmer) presoaked for 1 hr in polyethylenimine (0.3%) and washed 3 times with 1 ml of cold binding buffer. After addition of 45 μl of Microscint 40 (PerkinElmer) the Unifilter-96 plate was sealed and after 1 hr the radioactivity counted using a TopCount Microplate Scintillation Counter (Packard Instrument Company).

rat TAAR1 = rat TAAR1 (Rattus norvegicus (Rat), UniProt Q923Y9); test: Radioligand binding assay on rat TAAR1; details: membranes of HEK-293 cells stably expressing rat TAAR1; second value of cell mouse/rat
Protocol: as §1, §2, §3
Radioligand Binding Assay on rat TAAR1
as §4
HEK-293 cells stably expressing rat TAAR1 were maintained at 37° C. and 5% CO2 in DMEM high glucose medium, containing fetal calf serum (10%, heat inactivated for 30 min at 56° C.), penicillin/streptomycin (1%), and 375 μg/ml geneticin (Gibco). Cells were released from culture flasks using trypsin/EDTA, harvested, washed twice with ice-cold PBS (without Ca^2+ and Mg^2+), pelleted at 1,000 rpm for 5 min at 4° C., frozen and stored at −80° C. Frozen pellets were suspended in 20 ml HEPES-NaOH (20 mM, pH 7.4) containing 10 mM EDTA and homogenized with a Polytron (PT 6000, Kinematica) at 14,000 rpm for 20 s. The homogenate was centrifuged at 48,000×g for 30 min at 4° C. Subsequently, the supernatant was removed and discarded, and the pellet resuspended in 20 ml HEPES-NaOH (20 mM, pH 7.4) containing 0.1 mM EDTA using the Polytron (20 s at 14,000 rpm). This procedure was repeated and the final pellet resuspended in HEPES-NaOH containing 0.1 mM EDTA and homogenized using the Polytron. Typically, aliquots of 2 ml membrane portions were stored at −80° C. With each new membrane batch the dissociation constant (Kd) was determined via a saturation curve.
Nonspecific binding was defined as the amount of ^3-[H]-(S)-4-[(ethyl-phenyl-amino)-methyl]-4,5-dihydro-oxazol-2-ylamine bound in the presence of 10 μM unlabeled ligand. All compounds were tested at a broad range of concentrations (10 pM to 10 μM) in duplicates. […] The 96 deep well plates were incubated for 1 hr at 4° C. Incubations were terminated by rapid filtration through Unifilter-96 plates (Packard Instrument Company) and glass filters GF/C (Perkin Elmer) presoaked for 1 hr in polyethylenimine (0.3%) and washed 3 times with 1 ml of cold binding buffer. After addition of 45 μl of Microscint 40 (PerkinElmer) the Unifilter-96 plate was sealed and after 1 hr the ratioactivity counted using a TopCount Microplate Scintillation Counter (Packard Instrument Company).

Chain of mouse TAAR1 (Q923Y8 whole entry): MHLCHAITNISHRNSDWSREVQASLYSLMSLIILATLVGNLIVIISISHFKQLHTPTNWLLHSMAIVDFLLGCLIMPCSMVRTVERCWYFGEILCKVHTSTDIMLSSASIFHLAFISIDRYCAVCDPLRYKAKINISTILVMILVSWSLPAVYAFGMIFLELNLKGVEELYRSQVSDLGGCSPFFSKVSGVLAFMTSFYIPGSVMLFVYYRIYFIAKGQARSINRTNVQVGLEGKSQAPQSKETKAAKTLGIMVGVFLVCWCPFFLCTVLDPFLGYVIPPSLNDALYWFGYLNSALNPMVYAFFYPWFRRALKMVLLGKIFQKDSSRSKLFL
Chain of rat TAAR1 (Q923Y9 whole entry): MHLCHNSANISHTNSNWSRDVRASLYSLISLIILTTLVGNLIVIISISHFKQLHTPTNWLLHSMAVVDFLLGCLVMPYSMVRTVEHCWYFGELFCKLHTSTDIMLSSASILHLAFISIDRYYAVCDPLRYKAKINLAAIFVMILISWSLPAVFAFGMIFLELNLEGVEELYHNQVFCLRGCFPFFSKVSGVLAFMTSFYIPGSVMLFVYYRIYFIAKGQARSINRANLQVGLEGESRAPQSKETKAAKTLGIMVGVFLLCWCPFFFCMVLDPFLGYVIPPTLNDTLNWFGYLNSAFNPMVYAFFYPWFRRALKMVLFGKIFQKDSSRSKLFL

| SMILES | Ki (mouse TAAR1) | Ki (rat TAAR1) |
| --- | --- | --- |
| O=C(Nc1ccc([C@H]2CNCCO2)cc1)c1cc(-c2cccc(Cl)c2)[nH]n1 [Example 2, (S)-3-(3-chlorophenyl)-N-(4-(morpholin-2-yl)phenyl)-1H-pyrazole-5-carboxamide hydrochloride] | 0.0003 µM | 0.0004 µM |
| CCn1nc(-c2ccc(C#N)cc2)cc1C(=O)Nc1ccc([C@H]2CNCCO2)cc1 [Example 26, (S)-3-(4-cyanophenyl)-1-ethyl-N-(4-(morpholin-2-yl)phenyl)-1H-pyrazole-5-carboxamide hydrochloride] | 0.0734 µM | 0.0316 µM |
| COc1ccc(-c2cc(C(=O)Nc3ccc([C@H]4CNCCO4)cc3)[nH]n2)cc1 [Example 7, (S)-3-(4-methoxyphenyl)-N-(4-(morpholin-2-yl)phenyl)-1H-pyrazole-5-carboxamide hydrochloride] | 0.0012 µM | 0.0049 µM |
| COc1cccc(-c2cc(C(=O)Nc3ccc([C@@H]4CNCCO4)cc3)[nH]n2)c1 [Example 16, (R)-3-(3-methoxyphenyl)-N-(4-(morpholin-2-yl)phenyl)-1H-pyrazole-5-carboxamide hydrochloride] | 0.0013 µM | 0.0014 µM |
| O=C(Nc1ccc([C@H]2CNCCO2)cc1)c1ccn(-c2ccc(C(F)(F)F)cn2)n1 [Example 33, (S)—N-(4-(Morpholin-2-yl)phenyl)-1-(5-(trifluoromethyl)pyridin-2-yl)-1H-pyrazole-3-carboxamide hydrochloride] | 0.0028 µM | 0.0016 µM |
| O=C(Nc1ccc([C@H]2CNCCO2)cc1)c1ccn(-c2ncc(C(F)(F)F)cn2)n1 [Example 47, (S)—N-(4-(Morpholin-2-yl)phenyl)-1-(5-(trifluoromethyl)pyrimidin-2-yl)-1H-pyrazole-3-carboxamide hydrochloride] | 0.0198 µM | 0.0196 µM |
| O=C(Nc1ccc([C@H]2CNCCO2)cc1)c1ccn(-c2nccnc2Cl)n1 [Example 49, (S)-1-(3-Chloropyrazin-2-yl)-N-(4-(morpholin-2-yl)phenyl)-1H-pyrazole-3-carboxamide hydrochloride] | 0.0142 µM | 0.139 µM |
| N#Cc1ccc(F)c(-c2cc(C(=O)Nc3ccc([C@H]4CNCCO4)cc3)n[nH]2)c1 [Example 28, (S)-5-(5-cyano-2-fluorophenyl)-N-(4-(morpholin-2-yl)phenyl)-1H-pyrazole-3-carboxamide hydrochloride] | 0.0043 µM | 0.0129 µM |
| O=C(Nc1ccc([C@@H]2CNCCO2)cc1)c1cc(-c2cccc(Cl)c2)n[nH]1 [Example 15, (R)-3-(3-chlorophenyl)-N-(4-(morpholin-2-yl)phenyl)-1H-pyrazole-5-carboxamide hydrochloride] | 0.0006 µM | 0.0004 µM |
| CCn1nc(C(=O)Nc2ccc([C@H]3CNCCO3)cc2)cc1-c1cccc(OC(F)F)c1 [Example 41, (S)-5-(3-(Difluoromethoxy)phenyl)-1-ethyl-N-(4-(morpholin-2-yl)phenyl)-1H-pyrazole-3-carboxamide hydrochloride] | 0.0025 µM | 0.0016 µM |
| N#Cc1cccc(-c2cc(C(=O)Nc3ccc([C@@H]4CCCNC4)cc3)[nH]n2)c1 [Example 36, (S)-3-(3-Cyanophenyl)-N-(4-(piperidin-3-yl)phenyl)-1H-pyrazole-5-carboxamide hydrochloride] | 0.0014 µM | 0.0138 µM |
| Cn1nc(-c2cccc(Cl)c2)cc1C(=O)Nc1ccc([C@H]2CNCCO2)cc1 [Example 17, (S)-3-(3-chlorophenyl)-1-methyl-N-(4-(morpholin-2-yl)phenyl)-1H-pyrazole-5-carboxamide hydrochloride] | 0.0016 µM | 0.0024 µM |
| O=C(Nc1ccc([C@H]2CNCCO2)cc1)c1ccn(-c2cc(C(F)(F)F)ncn2)n1 [Example 51, (S)—N-(4-(Morpholin-2-yl)phenyl)-1-(6-(trifluoromethyl)pyrimidin-4-yl)-1H-pyrazole-3-carboxamide hydrochloride] | 0.0142 µM | 0.0071 µM |
| N#Cc1cccc(-c2cc(C(=O)Nc3ccc([C@H]4CCCNC4)cc3)[nH]n2)c1 [Example 37, (R)-3-(3-Cyanophenyl)-N-(4-(piperidin-3-yl)phenyl)-1H-pyrazole-5-carboxamide hydrochloride] | 0.0017 µM | 0.0027 µM |
| O=C(Nc1ccc([C@@H]2CNCCO2)cc1)c1ccn(-c2ccc(C(F)(F)F)cn2)n1 [Example 35, (R)—N-(4-(Morpholin-2-yl)phenyl)-1-(5-(trifluoromethyl)pyridin-2-yl)-1H-pyrazole-3-carboxamide hydrochloride] | 0.0022 µM | 0.0006 µM |
| CCn1nc(-c2cccc(OC(F)F)c2)cc1C(=O)Nc1ccc([C@H]2CNCCO2)cc1 [Example 42, (S)-3-(3-(Difluoromethoxy)phenyl)-1-ethyl-N-(4-(morpholin-2-yl)phenyl)-1H-pyrazole-5-carboxamide hydrochloride] | 0.001 µM | 0.0021 µM |
| O=C(Nc1ccc([C@H]2CNCCO2)cc1)c1cc(-c2ccccc2F)n[nH]1 [Example 8, (S)-3-(2-fluorophenyl)-N-(4-(morpholin-2-yl)phenyl)-1H-pyrazole-5-carboxamide hydrochloride] | 0.0009 µM | 0.0073 µM |
| O=C(Nc1ccc([C@H]2CNCCO2)cc1)c1ccn(-c2ccc(Cl)cn2)n1 [Example 32, (S)-1-(5-Chloropyridin-2-yl)-N-(4-(morpholin-2-yl)phenyl)-1H-pyrazole-3-carboxamide hydrochloride] | 0.0007 µM | 0.0011 µM |
| Cn1nc(-c2ccc(C#N)cc2)cc1C(=O)Nc1ccc([C@H]2CNCCO2)cc1 [Example 21, (S)-3-(4-cyanophenyl)-1-methyl-N-(4-(morpholin-2-yl)phenyl)-1H-pyrazole-5-carboxamide hydrochloride] | 0.0053 µM | 0.0055 µM |
